Test results taken from patent US20130090317A1 (priority 2011, published 2013).
Where two headings read alike, the source gives them in different places.

Key:
rats suffering from TBI = details: moderate to severe TBI, 16 mg/kg, 72 hours post-injury, p<0.05 (FIG. 1); cited from earlier work
[1] = test system: rats that have suffered a concussion (mTBI); assay: Morris Water Maze latency to platform in mTBI (concussion) model; assay type: in vivo, rat; details: versus vehicle-injured rats (FIG. 8)
severe TBI patients = details: six months; cited from earlier work
[2] = test system: moderate to severe TBI patients; details: cited from earlier work
glutathione reductase = details: 72 hours post-injury, p<0.01 (FIG. 2); cited from earlier work
[3] = target: T1, classical progesterone receptor (PR) (Homo sapiens, UniProt P06401); details: cited from earlier work
T1 sequence (P06401 1-933): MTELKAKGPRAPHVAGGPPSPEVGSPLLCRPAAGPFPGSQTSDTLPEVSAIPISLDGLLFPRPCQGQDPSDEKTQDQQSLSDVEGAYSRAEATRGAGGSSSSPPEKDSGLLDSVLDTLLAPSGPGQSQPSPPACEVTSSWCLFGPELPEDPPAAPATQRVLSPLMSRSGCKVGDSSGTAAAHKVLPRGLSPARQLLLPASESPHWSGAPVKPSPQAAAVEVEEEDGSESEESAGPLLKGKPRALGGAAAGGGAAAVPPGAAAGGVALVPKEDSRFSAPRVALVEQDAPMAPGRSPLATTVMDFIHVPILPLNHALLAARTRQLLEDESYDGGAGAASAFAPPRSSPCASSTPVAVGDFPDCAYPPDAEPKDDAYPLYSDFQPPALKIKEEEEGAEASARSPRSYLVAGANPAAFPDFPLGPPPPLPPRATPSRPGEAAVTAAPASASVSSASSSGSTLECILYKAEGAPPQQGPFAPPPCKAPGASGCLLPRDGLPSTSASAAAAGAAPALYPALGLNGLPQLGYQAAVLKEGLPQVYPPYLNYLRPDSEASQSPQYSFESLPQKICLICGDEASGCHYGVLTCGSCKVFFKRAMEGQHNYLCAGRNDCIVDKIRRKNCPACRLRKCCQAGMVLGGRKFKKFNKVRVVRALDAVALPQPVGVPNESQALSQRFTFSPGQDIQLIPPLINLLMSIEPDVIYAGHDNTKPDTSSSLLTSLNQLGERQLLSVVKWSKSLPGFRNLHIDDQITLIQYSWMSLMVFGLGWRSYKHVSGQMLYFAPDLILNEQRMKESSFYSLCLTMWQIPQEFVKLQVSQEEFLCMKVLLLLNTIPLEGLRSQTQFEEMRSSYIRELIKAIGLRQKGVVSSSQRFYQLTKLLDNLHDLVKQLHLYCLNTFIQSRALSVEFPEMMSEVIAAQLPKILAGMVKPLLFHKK

Row | Structure (SMILES) | brain water content (measure of edema) (rats suffering from TBI) | latency to platform, Morris Water Maze ([1]; Prog administered post-acutely (15 minutes post)) | latency to platform, Morris Water Maze ([1]; Prog administered prophylactically (15 minutes prior)) | neurological outcomes long-term (severe TBI patients) | 30 days post-injury outcomes (Glasgow Outcome Scale-Extended, Disability Rating Scale) ([2]; moderate TBI patients) | 30 days post-injury outcomes (Glasgow Outcome Scale-Extended, Disability Rating Scale) ([2]; patients with severe brain injuries) | anti-oxidant activity of glutathione reductase (glutathione reductase) | activation of the classical progesterone receptor (PR) [3]
1 | CC(=O)[C@H]1CC[C@H]2[C@@H]3CC[C@H]4C[C@H](O)CC[C@]4(C)[C@H]3CC[C@]12C [ALLO, allopregnanolone] | normalizes brain water content |  |  |  |  |  |  | 
2 | CC(=O)[C@H]1CC[C@H]2[C@@H]3CCC4=CC(=O)CC[C@]4(C)[C@H]3CC[C@]12C [Prog, progesterone] | normalizes brain water content | decreases latency to platform | decreases latency to platform | better neurological outcomes long-term | better outcomes | little measurable difference |  | 
3 | CC(=O)[C@@H]1CC[C@@H]2[C@H]3CCC4=CC(=O)CC[C@@]4(C)[C@@H]3CC[C@]21C [ent-Prog, ent-progesterone] | normalizes brain water content |  |  |  |  |  | significantly increases the anti-oxidant activity of glutathione reductase compared to all other groups | does not activate the classical progesterone receptor (PR)
